Data set [1] in a line: LogD measurement octanol/PBS pH 7.4. Type of data set: physicochemical. Particulars: read-out: Logd7.4. The method, then: Ten microlitre of a 10 mM solution in DMSO of the compound are diluted either in 490 μl of PBS pH 7.4 or in organic solvent MeOH in a 700 μl-microtube (in triplicate). The tubes are gently shaken 24 h at room temperature, then centrifuged for 5 min at 4,000 r.p.m. The mixtures are filtered over 0.45 μm filters (Millex-LH Millipore). Twenty microlitre of sample are diluted in 180 μl of MeOH. The solubility is determined by the ratio of mass signal area PBS/ organic solvent. Forty microlitre of a 10 mM solution in DMSO of the compound were diluted in 1.960 ml of a 1/1 octanol /PBS at pH 7.4 mixture. The mixture was gently shaken 2 h at room temperature. Twenty microlitre of each phase was diluted in 480 μl of MeOH and analysed by LC–MS. Each compound is tested in triplicate. Log D was determined as the logarithm of the ratio of concentration of product in octanol and PBS respectively, determined by mass signals.

Data set [2] relates to human SY5Y neuroblastoma cells. Description: Aβ1–40 secretion by differentiated SH-SY5Y cells (ELISA). Type of data set: cell-based. The conditions noted are these: 10 μM and 30 μM, 48 h. On the procedure: The human neuroblastoma cell lines SH-SY5Y were provided from ATCC (cat. no. crl2266) with a Certificate of Analysis and not checked in the lab for mycoplasma contamination. […] SH-SY5Y were seeded in a 96-well plate at 200,000 cells per cm^2. […] Differentiated cells were then incubated with compounds at 10 μM and 30 μM in presence of 0.1% DMSO.

A further data set concerns the target T1, hIDE (Homo sapiens, UniProt P14735).
T1 construct: made in house
T1 sequence (P14735 1-1019): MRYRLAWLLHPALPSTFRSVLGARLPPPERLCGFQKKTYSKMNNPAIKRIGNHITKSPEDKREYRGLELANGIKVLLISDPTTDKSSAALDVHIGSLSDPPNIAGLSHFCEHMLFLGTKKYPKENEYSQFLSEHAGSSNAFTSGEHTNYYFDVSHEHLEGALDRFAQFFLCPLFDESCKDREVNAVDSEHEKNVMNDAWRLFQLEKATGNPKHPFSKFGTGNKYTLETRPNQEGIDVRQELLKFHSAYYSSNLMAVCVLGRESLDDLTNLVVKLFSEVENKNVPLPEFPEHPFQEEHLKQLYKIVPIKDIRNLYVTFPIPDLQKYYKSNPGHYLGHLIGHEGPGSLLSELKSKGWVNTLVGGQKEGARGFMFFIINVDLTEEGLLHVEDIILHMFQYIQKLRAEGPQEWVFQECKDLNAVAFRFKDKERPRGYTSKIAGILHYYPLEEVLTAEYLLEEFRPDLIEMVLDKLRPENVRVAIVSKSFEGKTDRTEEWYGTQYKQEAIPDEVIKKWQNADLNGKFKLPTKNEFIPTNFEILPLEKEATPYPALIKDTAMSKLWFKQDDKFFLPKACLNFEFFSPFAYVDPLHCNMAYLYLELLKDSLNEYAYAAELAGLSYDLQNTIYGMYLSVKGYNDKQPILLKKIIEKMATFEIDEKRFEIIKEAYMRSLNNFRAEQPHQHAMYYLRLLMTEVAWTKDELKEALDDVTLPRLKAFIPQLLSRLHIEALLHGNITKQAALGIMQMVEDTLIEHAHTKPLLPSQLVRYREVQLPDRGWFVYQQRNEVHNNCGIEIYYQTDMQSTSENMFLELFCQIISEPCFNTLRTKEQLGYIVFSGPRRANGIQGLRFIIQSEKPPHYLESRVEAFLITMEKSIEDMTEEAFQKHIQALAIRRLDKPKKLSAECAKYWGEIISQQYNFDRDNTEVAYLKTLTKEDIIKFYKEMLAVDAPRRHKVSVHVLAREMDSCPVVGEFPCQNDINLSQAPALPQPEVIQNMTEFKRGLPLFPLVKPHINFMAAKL
Description: Small-angle X-ray scattering (SAXS) of hIDE conformation. The method, then:
SAXS data were collected at the APS 18-ID (BioCAT) with the Mar 165 CCD detector at room temperature (24 °C). The incident X-ray wavelength is 1.033 Å. hIDE was purified as described before. After 2 gel-filtration, hIDE was concentrated and dialysis against 20 mM Hepes, pH 7.2, 100 mM NaCl. […] The data reducing and all data processing were carried out using ATSAS. P(r) function was calculated with GNOM[44], and SAXS data fitting was performed with CRYSOL[45].

The nature of the next data set: Microsomal stability. Type of data set: in vitro ADME. The conditions noted are these: male, CD-1, pH 7.4, mouse liver microsomes, read-out: Microsomal stability m (t1/2). The method, then: Male mouse (CD-1) liver microsomes (BD Gentest) were used. All incubations were performed in duplicate in a shaking water bath at 37 °C. The incubation mixtures contained 1 μM compound with 1% methanol used as a vehicle, mouse liver microsomes (0.6 mg of microsomal protein per mL), 5 mM MgCl2, 1 mM NADP, 5 mM glucose 6-phosphate, 0.4 U ml^−1 glucose 6-phosphate dehydrogenase, and 50 mM potassium phosphate buffer (pH 7.4) in a final volume of 1.5 ml. Samples were taken at 5, 10, 20, 30 and 40 min after microsome addition, and reactions stopped by adding ice-cold acetonitrile containing 1 μM internal standard (four volumes). Centrifugation of the samples for 10 min at 10,000g and 4 °C allowed to pellet precipitated microsomal proteins, and supernatant was subjected LC−MS/MS analysis, in acetonitrile containing 1 μM internal standard. Each compound was quantified by converting the corresponding analyte/internal standard peak area ratios to percentage drug remaining, using the initial ratio values in control incubations as 100%. Propranolol, known as a high hepatic clearance drug in rodents, was used as a quality-control compound for the microsomal incubations. […] The slope of the linear regression from log percentage remaining versus incubation time relationships (-k) was used in the conversion to in vitro t1/2 values by: t1/2=−0.693/k.
(In general: Microsomes from liver hold many membrane-bound enzymes, among them those of drug oxidation.)

Molecules are shown by their SMILES. Entries after “also recorded” stand apart in the source; their conditions may differ.

As to `O=C(C[C@@H](Cc1ccc2ccccc2c1)n1cc(CNC(=O)c2ccc(F)cc2)nn1)NO` [Compound 1], the logD in data set [1] is 2.2. Moreover, in data set [2], the “Aβ1–40 in culture supernatants” value is reported as “significant elevations; also recorded: significantly increased; also recorded: dose-dependent increase”. Further, the “radius of gyration (Rg) of IDE with compound” value on hIDE (53.1 Å without compound) was found to be 47.6 Å. For the same compound, on hIDE (180 Å without compound), the “Dmax of IDE with compound” value was determined as 160 Å. The “fraction of IDE in the open conformation with compound” value on hIDE (∼63% open in the absence of compound, fit of SAXS profile) is given as around 16%. In “Microsomal stability”, the half-life at 1 μM was determined as 20 min.

Source of the values: article PMC4580987, “Catalytic site inhibition of insulin-degrading enzyme by a small molecule induces glucose intolerance in mice” (Nature Communications, 2015).
